The values that follow are results of earlier work, collected in US20230000814A1, “PHARMACEUTICAL COMPOSITION COMPRISING STEROID COMPOUND AND OLOPATADINE” (TOKO YAKUHIN KOGYO CO., LTD., priority 2019, published 2023).

Molecules are shown by their SMILES. Where two headings read alike, the source gives them in different places.

Regarding `CN(C)CC/C=C1/c2ccccc2COc2ccc(CC(=O)O)cc21` [olopatadine, Olopatadine], the solubility of olopatadine result is given as “very low” (around neutral pH) and “not soluble” (concentration 0.2% or more as olopatadine free base, solution having pH of 5 or higher).
